Source: ChEMBL document CHEMBL1201862, “PubChem BioAssay data set” (2004)
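Test compounds were applied to cells in 96-well plates for 48 hours at 5 doses. At the GI50, growth is halved.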 Activity calls are given as the source filed them. Rule as the data show it: active = GI50 up to about 1.1 µM and inactive = higher.

Legend:
Assay in all cases: NCI tumour cell line growth inhibition, 48 h
SK-MEL-28 = system: SK-MEL-28
SR = system: SR
UO-31 = system: UO-31
SK-OV-3 = system: SK-OV-3
SK-MEL-5 = system: SK-MEL-5
UACC-62 = system: UACC-62
COLO 205 = system: COLO 205
RXF 393 = system: RXF 393
Malme-3M = system: Malme-3M
NCI-H460 = system: NCI-H460
UACC-257 = system: UACC-257
SNB-19 = system: SNB-19
KM12 = system: KM12
SF-268 = system: SF-268
HCT-116 = system: HCT-116
NCI-H23 = system: NCI-H23
U-251 = system: U-251
IGROV-1 = system: IGROV-1
RPMI-8226 = system: RPMI-8226

Measured: GI50

CC1CC2=Nc3ccccc3NC(c3ccccc3)C2=C(O)O1 (stereo not drawn)
inactive: SK-MEL-28 > 100 µM | SR 63.1 µM | UO-31 > 100 µM | SK-OV-3 > 100 µM | SK-MEL-5 > 100 µM | UACC-62 93.8 µM | COLO 205 > 100 µM | RXF 393 > 100 µM | Malme-3M > 100 µM | NCI-H460 > 100 µM | UACC-257 > 100 µM | SNB-19 > 100 µM | KM12 > 100 µM | SF-268 > 100 µM | HCT-116 > 100 µM | NCI-H23 > 100 µM | U-251 > 100 µM | IGROV-1 > 100 µM

CCN(CC)CC(C)(C)C(=O)/C=C/c1ccc(C)cc1
inactive: SK-MEL-28 13.5 µM | SR 3.61 µM | UO-31 10.5 µM | SK-OV-3 22.6 µM | SK-MEL-5 14.2 µM | UACC-62 13.6 µM | RXF 393 9.62 µM | Malme-3M 9.46 µM | NCI-H460 6.08 µM | SNB-19 11.8 µM | KM12 5.87 µM | SF-268 10.1 µM | HCT-116 4.3 µM | NCI-H23 > 10 µM | U-251 15.3 µM

CN(c1nc(=[N+](C)C)ss1)C1CCCCC1
inactive: SK-MEL-28 > 100 µM | SR > 100 µM | UO-31 > 100 µM | SK-OV-3 > 100 µM | SK-MEL-5 68.7 µM | UACC-62 19.4 µM | RXF 393 > 100 µM | Malme-3M > 100 µM | NCI-H460 13.3 µM | UACC-257 > 100 µM | SNB-19 70.5 µM | KM12 58.5 µM | SF-268 60.1 µM | HCT-116 > 100 µM | NCI-H23 74.3 µM | RPMI-8226 62.1 µM | U-251 33.4 µM | IGROV-1 > 100 µM

CN(CCO)c1nc(=O)c2c([nH]1)CCC2
inactive: SK-MEL-28 > 100 µM | SR > 100 µM | UO-31 > 100 µM | SK-OV-3 > 100 µM | SK-MEL-5 > 100 µM | UACC-62 > 100 µM | COLO 205 > 100 µM | RXF 393 > 100 µM | Malme-3M > 100 µM | NCI-H460 > 100 µM | UACC-257 > 100 µM | SNB-19 > 100 µM | KM12 > 100 µM | SF-268 > 100 µM | HCT-116 > 100 µM | NCI-H23 > 100 µM | RPMI-8226 > 100 µM | U-251 > 100 µM | IGROV-1 > 100 µM

CCC(=O)ONC(=O)Cn1ccc([N+](=O)[O-])n1
inactive: SK-MEL-28 > 100 µM | SR > 100 µM | UO-31 > 100 µM | SK-OV-3 > 100 µM | SK-MEL-5 > 100 µM | UACC-62 > 100 µM | COLO 205 > 100 µM | RXF 393 > 100 µM | Malme-3M > 100 µM | UACC-257 > 100 µM | SNB-19 > 100 µM | KM12 > 100 µM | SF-268 > 100 µM | HCT-116 > 100 µM | NCI-H23 > 100 µM | RPMI-8226 > 100 µM | IGROV-1 > 100 µM

CN1C(=O)NC2(O)c3ccccc3C(=O)C12O (stereo not drawn)
inactive: SK-MEL-28 > 100 µM | SR > 100 µM | UO-31 > 100 µM | SK-OV-3 > 100 µM | UACC-62 > 100 µM | COLO 205 > 100 µM | Malme-3M > 100 µM | NCI-H460 > 100 µM | UACC-257 > 100 µM | SNB-19 > 100 µM | KM12 > 100 µM | SF-268 > 100 µM | HCT-116 > 100 µM | NCI-H23 > 100 µM | RPMI-8226 > 100 µM | U-251 > 100 µM | IGROV-1 > 100 µM

CC(=O)NC(C)(C)C1CC=C(C)CC1 (stereo not drawn)
inactive: SK-MEL-28 > 100 µM | SR > 100 µM | UO-31 > 100 µM | SK-OV-3 > 100 µM | SK-MEL-5 > 100 µM | UACC-62 > 100 µM | COLO 205 > 100 µM | RXF 393 > 100 µM | Malme-3M > 100 µM | NCI-H460 > 100 µM | UACC-257 > 100 µM | SNB-19 > 100 µM | KM12 > 100 µM | SF-268 > 100 µM | HCT-116 > 100 µM | NCI-H23 > 100 µM | RPMI-8226 > 100 µM | U-251 > 100 µM | IGROV-1 > 100 µM

COC1=CC(=O)c2ccccc2C1(CCC=C(C)C)C1=NC(C)(C)CO1 (stereo not drawn)
inactive: SK-MEL-28 > 100 µM | SR 40.3 µM | UO-31 28.6 µM | SK-OV-3 86.5 µM | SK-MEL-5 > 100 µM | UACC-62 > 100 µM | COLO 205 > 100 µM | RXF 393 56.4 µM | Malme-3M 78.7 µM | NCI-H460 > 100 µM | UACC-257 54.6 µM | SNB-19 84.9 µM | KM12 > 100 µM | SF-268 > 100 µM | HCT-116 48.4 µM | NCI-H23 91.2 µM | RPMI-8226 32.2 µM | U-251 80.4 µM | IGROV-1 84.5 µM

CCC1=CCN(c2cc(C)ccn2)OC1c1ccc(OC)cc1 (stereo not drawn)
inactive: SK-MEL-28 24.1 µM | SR 25.5 µM | UO-31 25.6 µM | SK-OV-3 48.8 µM | SK-MEL-5 16.9 µM | UACC-62 29.4 µM | COLO 205 16.3 µM | RXF 393 22.3 µM | Malme-3M 27 µM | NCI-H460 31.7 µM | UACC-257 23.6 µM | SNB-19 46.1 µM | KM12 31.2 µM | SF-268 45.1 µM | HCT-116 21.2 µM | NCI-H23 34 µM | RPMI-8226 22.6 µM | U-251 21.5 µM | IGROV-1 55.7 µM

COc1ccc2nc3cc(Cl)ccc3c(Sc3ccc([N+](=O)[O-])cc3C)c2c1
inactive: SK-MEL-28 > 100 µM | SR > 100 µM | UO-31 > 100 µM | SK-OV-3 > 100 µM | SK-MEL-5 > 100 µM | UACC-62 > 100 µM | COLO 205 4.06 µM | RXF 393 > 100 µM | Malme-3M > 100 µM | NCI-H460 > 100 µM | UACC-257 > 100 µM | SNB-19 > 100 µM | KM12 > 100 µM | SF-268 > 100 µM | HCT-116 > 100 µM | NCI-H23 > 100 µM | U-251 > 100 µM | IGROV-1 > 100 µM

Cc1ccccc1NC(=O)C(=O)C1CN(c2ccccc2)N=C1N (stereo not drawn)
inactive: SK-MEL-28 > 100 µM | SR > 100 µM | UO-31 > 100 µM | SK-OV-3 > 100 µM | SK-MEL-5 > 10 µM | RXF 393 > 100 µM | Malme-3M > 100 µM | NCI-H460 > 100 µM | UACC-257 > 100 µM | SNB-19 > 100 µM | SF-268 > 100 µM | HCT-116 > 100 µM | NCI-H23 > 100 µM | U-251 > 100 µM | IGROV-1 > 100 µM

C=C/C=C/NC(=O)OCc1ccccc1
inactive: SK-MEL-28 > 100 µM | SR 98.9 µM | UO-31 > 100 µM | SK-OV-3 > 100 µM | SK-MEL-5 > 100 µM | UACC-62 > 100 µM | COLO 205 > 100 µM | RXF 393 > 100 µM | NCI-H460 > 100 µM | UACC-257 > 100 µM | SNB-19 > 100 µM | KM12 > 100 µM | SF-268 > 100 µM | HCT-116 > 100 µM | RPMI-8226 82.8 µM | U-251 > 100 µM | IGROV-1 > 100 µM

Cc1ccc2c(c1)C1(OC(=O)c3ccccc31)c1ccc(F)cc1O2 (stereo not drawn)
inactive: SR 25.5 µM | UO-31 20.3 µM | SK-OV-3 > 100 µM | SK-MEL-5 32.7 µM | UACC-62 70.6 µM | COLO 205 38.7 µM | Malme-3M 67.8 µM | UACC-257 31 µM | KM12 51.3 µM | SF-268 68.4 µM | HCT-116 32.7 µM | RPMI-8226 24.2 µM | IGROV-1 > 100 µM

CC(=O)NC1=C(NCC(C)(C)C)C(=O)c2ccccc2C1=O
inactive: SK-MEL-28 > 100 µM | SR > 100 µM | UO-31 46.3 µM | SK-OV-3 > 100 µM | SK-MEL-5 40.2 µM | UACC-62 39 µM | COLO 205 39.3 µM | RXF 393 37 µM | Malme-3M 34.3 µM | NCI-H460 98.4 µM | UACC-257 50.2 µM | SNB-19 > 100 µM | KM12 82.6 µM | SF-268 > 100 µM | HCT-116 33.7 µM | NCI-H23 56.5 µM | U-251 65 µM | IGROV-1 > 100 µM

CC(C)(C)C1=NO[C@H]2[C@@H](NC(=O)c3ccccc3)CC[C@@H]12
inactive: SK-MEL-28 > 100 µM | SR > 100 µM | UO-31 > 100 µM | SK-OV-3 > 100 µM | SK-MEL-5 > 100 µM | UACC-62 > 100 µM | COLO 205 > 100 µM | RXF 393 > 100 µM | Malme-3M > 100 µM | NCI-H460 > 100 µM | UACC-257 > 100 µM | SNB-19 > 100 µM | KM12 > 100 µM | SF-268 > 100 µM | HCT-116 > 100 µM | NCI-H23 > 100 µM | RPMI-8226 > 100 µM | U-251 > 100 µM | IGROV-1 > 100 µM

CC(=O)OC(C)(C)C[N+](=O)[O-]
inactive: SK-MEL-28 > 100 µM | SR > 100 µM | UO-31 > 100 µM | SK-OV-3 > 100 µM | COLO 205 > 100 µM | RXF 393 > 100 µM | Malme-3M > 100 µM | NCI-H460 > 100 µM | UACC-257 > 100 µM | SNB-19 > 100 µM | KM12 > 100 µM | SF-268 > 100 µM | HCT-116 > 100 µM | NCI-H23 > 100 µM | RPMI-8226 > 100 µM | U-251 > 100 µM | IGROV-1 > 100 µM
